Assay results reported in patent publication US20100087534A1, “Use of a Photosensitizing Agent in the Treatment or Prevention of an Inflammation-Associated Disorder in the Gastrointestinal Tract of a Mammal” (priority 2005, published 2010).

Columns and labels:
IFN-γ [1] = assay: Expression index of IFN-γ mRNA in illuminated colon, quantitative real-time PCR; format: in vivo, BALB/c mice
Excerpt: (§1) The third portion was used for measuring the expression of the molecules involved in immune and inflammatory phenomenons in the colonic mucosa (cytokines, chemokines). For RNA extraction this portion was conserved in RNA-later solution (Ambion Inc. Austin, USA) until processing. RNA was extracted from the tissues using a Rneasy Mini kit (Qiagen, Hombrechtikon, Switzerland). RNA samples were submitted to a second or third DNAse treatment in order to get rid of all traces of genomic DNA. Quality of the RNA samples was tested on agarose gels and absence of genomic DNA was tested by PCR using primers specific for a house keeping gene, glyceraldehydes-3-phosphate-dehydrogenase (GAPDH). RNA preparations were then submitted to reverse transcription using the ThermoScript™ RT-PCR system (Invitrogen, Basel, Switzerland) using an Oligo-dT as primer. Quantification of reverse transcripted messenger RNA for GAPDH, the inducible nitric oxide synthetase (iNOS), interferon-gamma (IFN-γ), interleukin-1 receptor antagonist (IL1-Ra), tumor necrosis factor alpha (TNF-α), interleukin 6 (IL-6), tumor growth factor beta (TGF-13) and interleukin10 (IL-10) was performed by quantitative real-time PCR in a BioRad Real-time PCR iCycler using specific pairs of primers and the green fluorescence dye SYBR—Green®. GAPDH was used to normalize quantifications within each individual sample (normalization of the number of mRNA copies for the gene of interest/1 million mRNA copies of the GAPDH gene of the investigated mouse). Expression of each gene of interest was finally calculated as an expression index (normalized number of mRNA copies of each manipulated mice/normalized number of mRNA copies of the unmanipulated mice) and the results are given as mean values of the expression index (unmanipulated mean mice index=1). Furthermore one kidney and a part of the liver were collected for pathological analysis to exclude hepato- or nephrotoxicity.

IL-1Ra = assay: Expression index of IL-1Ra mRNA in illuminated colon, quantitative real-time PCR; format: in vivo, BALB/c mice
Excerpt: as §1

IFN-γ [2] = assay: IFN-γ expression index in colon of transfer colitis SCID mice (FIG. 2); format: in vivo
Description: (§2) FIG. 2 represents the expression indices of the proinflammatory markers IFN-γ and TNF-α in untransfered mice, disease control group and PDT group (15 mg/kg of δ-ALA, 10 J/cm^2).
(§3) Typically, the expression index of each pro-inflammatory marker of interest is calculated (normalized number of mRNA copies of each manipulated mice/normalized number of mRNA copies of the unmanipulated mice). The results are given as mean values of the expression index (unmanipulated mean mice index=1). […]
(§4) The third portion was used for measuring the expression of the molecules involved in immune and inflammatory phenomenons in the colonic mucosa (cytokines, chemokines). […] Quantification of reverse transcripted messenger RNA for GAPDH, the inducible nitric oxide synthetase (iNOS), interferon-gamma (IFN-γ), interleukin-1 receptor antagonist (IL1-Ra), tumor necrosis factor alpha (TNF-α), interleukin 6 (IL-6), tumor growth factor beta (TGF-13) and interleukin10 (IL-10) was performed by quantitative real-time PCR in a BioRad Real-time PCR iCycler using specific pairs of primers and the green fluorescence dye SYBR—Green®. GAPDH was used to normalize quantifications within each individual sample (normalization of the number of mRNA copies for the gene of interest/1 million mRNA copies of the GAPDH gene of the investigated mouse). […]

TNF-α = TNF-α expression index in colon of transfer colitis SCID mice (FIG. 2); format: in vivo
Description: as §2, §3, §4

[3] = test system: SCID mice with TH1-mediated Crohn-like colitis after transfer of CD4+CD45RBhigh T-cells; assay: Histological analysis of colon after low dose PDT in transfer colitis (Example 2); format: in vivo
Description: Evolution of colitis in SCID mice was monitored every week by colonoscopic investigation after induction. Mice with moderately inflamed colons [endoscopic index of colitis severity (EICS) index 4-8] or marked inflamed colons (EICS 9-13) were randomly assigned to either a <<low dose>> PDT group or no treatment group (disease control group). Unmanipulated age-matched SCID mice served as negative controls.
(§5) PDT was performed with a photosensitizing agent (δ-ALA) dose of 15 mg/kg, administered 3 hours before the illumination with the energy dose of 10 J/cm^2 per gastrointestinal tract tissue.
The illumination time was 100 s, the wavelength 635 nm.
Mice were monitored by colonoscopy at day 3 and weeks 1, 2, 3 and 4 post PDT treatment. In addition to parameters investigated in example 1, CD4 immunostaining and apoptosis detection were performed.

[4] = test system: CD4+ cells in the inflamed colonic mucosa; assay: Annexin-V mediated detection of apoptosis in CD4+ cells of colonic mucosa; format: in vivo, SCID mice; settings: time zero reference 1.8±0.2%
Description: as §5
For Annexin-V mediated detection of apoptosis mice were sacrificed 4 or 20 hours after low dose PDT later. Untreated inflamed mice were also sacrificed and were considered as the time zero reference. In order to extract cells from the colonic mucosa, treated portions of the colons, or equivalent portions in untreated mice, were collected, cut into small pieces and individually incubated for 20 minutes at room temperature under constant agitation in a PBS solution containing 5 mM EDTA. […] Cells were then analyzed through a FACscan flowcytometer (Becton Dickinson), once in the absence of propidium iodide (PI) and once in the presence of PI in order to identify population of viable cells. The percentage of Annexin-V^+ cells within the CD4^+ population was finally calculated based on a forward and side scatter gated population consisting of viable cells (>98% of PI negative cells) and containing the most percentage of CD4^+ cells (>80%).

[5] = high dose PDT: 50 J/cm^2, 60 mg δ-ALA, 74 h, unmanipulated mice index=1
[6] = low dose PDT 15 mg/kg δ-ALA, 10 J/cm2
[7] = low dose PDT 5J/cm2, 15 mg/kg δ-ALA
[8] = 15 mg/kg δ-ALA, 10 J/cm^2, versus disease control group (FIG. 2)
[9] = 10 J/cm^2, 15 mg/kg δ-ALA, compared to "colonoscopy" mice, deduced from FIG. 2

In the case of `NCC(=O)CCC(=O)O` [δ-ALA, 5-aminolevulinic acid], the “expression index IFN-γ” value (IFN-γ [1]; [5]) is reported as 5.36±1.67, the “expression index IFN-γ” value (IFN-γ [1]; [6]) is reported as 0.93±0.09 and the “expression index IFN-γ” value (IFN-γ [1]; [7]) is reported as 1.92±0.50. The “expression index IL-1Ra” value (IL-1Ra; [5]) was 4.54±1.21, the “expression index IL-1Ra” value (IL-1Ra; [6]) was 0.94±0.08 and the “expression index IL-1Ra” value (IL-1Ra; [7]) was 1.14±0.11. For the same molecule, the “expression index IFN-γ after low dose PDT” value (IFN-γ [2]; [8]) was “decreased significantly”, the “decrease of the expression of pro-inflammatory marker IFN-γ” value (IFN-γ [2]; [9]) was 73% and the “expression index TNF-α after low dose PDT” value (TNF-α; [8]) was “decreased significantly”. The “decrease of the expression of pro-inflammatory marker TNF-α” value (TNF-α; [9]) was 63%, the “histology of illuminated portion of colon” value ([3]; PDT-treated mice, illuminated portion) was “a normal mucosa with low cellular infiltration” and the “histological score of inflammation” value ([3]; marked inflamed mice, 3 days after PDT, DC mice 7.7±0.6, P=0.0250) was 4.6±0.8. The “percentage of Annexin V+ cells in the CD4+/PI- population” value ([4]; 4 hours after low dose PDT, P=0.0043) was 3.0±0.3% and the “percentage of Annexin V+ cells in the CD4+/PI- population” value ([4]; 20 hours after low dose PDT, P=0.0012) was 4.6±0.5%.
